In PubChem BioAssay (NCI) one finds TGI data, which are given here for 13 molecules.

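48-hour exposure; five concentrations; linearly interpolated endpoints. At the TGI there is no net growth.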

Test systems include T-47D breast; UACC-257 melanoma; K-562 leukemia; 786-0 renal; COLO 205 colon; HL-60(TB) leukemia; MALME-3M melanoma; HCC-2998 colon; MDA-MB-231 breast; A549 NSCLC; OVCAR-5 ovarian.
What all share (assay): DTP human tumour cell line panel, 48 h

Usually TGI stands for the concentration giving total growth inhibition. Low readings indicate greater sensitivity of the cells, high ones lower sensitivity of the cells. Turning to `COCC(=O)OC1CCn2c1nc1c2C(=O)C(C)=C(NC(C)=O)C1=N` (stereo not drawn), the TGI in the experiment on T-47D breast stood at 6.98 µM; in the experiment with UACC-257 melanoma, 8.23 µM; with K-562 leukemia, 4.59 µM; in the experiment with 786-0 renal it was 9.3 µM; in the experiment on COLO 205 colon, 37.3 µM; with HL-60(TB) leukemia it was 4.54 µM. Further, the TGI is 2.7 µM in the experiment on MALME-3M melanoma; 27.7 µM in the experiment on HCC-2998 colon; 8.82 µM in the experiment on MDA-MB-231 breast; 42.5 µM with A549 NSCLC; 25.3 µM in the experiment on OVCAR-5 ovarian.
On to `O=c1c[n+](-c2ccccc2)[nH]o1`, for which the TGI in the experiment on T-47D breast, with UACC-257 melanoma, in the experiment with K-562 leukemia, in the experiment on 786-0 renal, in the experiment on COLO 205 colon and in the experiment with HL-60(TB) leukemia was more than 100 µM in each case. Also, the TGI with MALME-3M melanoma, in the experiment with HCC-2998 colon, in the experiment on MDA-MB-231 breast, in the experiment with A549 NSCLC and in the experiment on OVCAR-5 ovarian was more than 100 µM throughout.
For `CC(=O)OCC1OC(n2c3c(cc(C#N)c2=S)CCCCCC3)C(OC(C)=O)C(OC(C)=O)C1OC(C)=O` (stereo not drawn), the TGI with T-47D breast was 30.4 µM; in the experiment on UACC-257 melanoma, more than 100 µM; in the experiment on K-562 leukemia it was more than 100 µM; with 786-0 renal it was more than 100 µM; with COLO 205 colon, more than 100 µM; in the experiment with HL-60(TB) leukemia it was more than 100 µM. Besides, the TGI in the experiment with MALME-3M melanoma, in the experiment on HCC-2998 colon, in the experiment on MDA-MB-231 breast, in the experiment with A549 NSCLC and with OVCAR-5 ovarian was more than 100 µM throughout.
On to `Cc1cc(N(CCC#N)CCC#N)ccc1/C(N=Nc1ccccc1)=N\NC(=O)c1ccccc1`, for which the TGI is 49 µM in the experiment on T-47D breast; more than 100 µM in the experiment on UACC-257 melanoma; 44.7 µM with K-562 leukemia; 76.6 µM in the experiment with 786-0 renal; 53.6 µM with COLO 205 colon; more than 100 µM in the experiment on HL-60(TB) leukemia. For the same molecule, the TGI with MALME-3M melanoma, in the experiment on HCC-2998 colon, with MDA-MB-231 breast, in the experiment with A549 NSCLC and in the experiment with OVCAR-5 ovarian was more than 100 µM throughout.
On to `Cc1ccc(S(=O)C[C@@]2(C(F)F)NC(=O)NC2=O)cc1` (stereo partly drawn), for which the TGI in the experiment on T-47D breast, in the experiment with UACC-257 melanoma, in the experiment with K-562 leukemia, in the experiment on 786-0 renal, in the experiment with COLO 205 colon and in the experiment on HL-60(TB) leukemia was more than 100 µM in each case. For the same molecule, the TGI in the experiment on MALME-3M melanoma, in the experiment on HCC-2998 colon, in the experiment with MDA-MB-231 breast, in the experiment on A549 NSCLC and with OVCAR-5 ovarian was more than 100 µM in each case.
With `O=C(O)CSc1nnc(CCCCCCCCc2nnc(SCC(=O)O)o2)o1`, the TGI in the experiment on T-47D breast, in the experiment on UACC-257 melanoma, in the experiment on K-562 leukemia, in the experiment on 786-0 renal, in the experiment with COLO 205 colon and with HL-60(TB) leukemia was more than 100 µM in each case. For the same molecule, the TGI in the experiment with MALME-3M melanoma, in the experiment with HCC-2998 colon, in the experiment on MDA-MB-231 breast, in the experiment with A549 NSCLC and in the experiment with OVCAR-5 ovarian was more than 100 µM in each case.
Turning to `CC1(C)CCCCCC(C)(CCCCCCCCCCCO)C1=O` (stereo not drawn), the TGI in the experiment with T-47D breast is 29.8 µM; in the experiment on UACC-257 melanoma it was 27 µM; in the experiment with K-562 leukemia, 31 µM; in the experiment with 786-0 renal it was 29.8 µM; in the experiment on COLO 205 colon, 30.9 µM; with HL-60(TB) leukemia it was 31.8 µM. The TGI worked out at 29.8 µM in the experiment with MALME-3M melanoma; 39.9 µM in the experiment with HCC-2998 colon; 29.9 µM in the experiment with MDA-MB-231 breast; 29 µM in the experiment with A549 NSCLC; 31.2 µM in the experiment with OVCAR-5 ovarian.
On to `BrCCC[P+](c1ccccc1)(c1ccccc1)c1ccccc1`, for which the TGI was 36.5 µM in the experiment with T-47D breast; 48.3 µM with UACC-257 melanoma; more than 100 µM with K-562 leukemia; more than 100 µM with 786-0 renal; 4.16 µM in the experiment on COLO 205 colon; 6.49 µM in the experiment with HL-60(TB) leukemia. In addition, the TGI was more than 100 µM in the experiment with MALME-3M melanoma; more than 100 µM in the experiment on HCC-2998 colon; 86 µM in the experiment on MDA-MB-231 breast; more than 63.8 µM with A549 NSCLC; more than 100 µM in the experiment on OVCAR-5 ovarian.
Consider `COC1=CC(=O)c2c(O)ccc(O)c2C1=O`, for which the TGI in the experiment on T-47D breast was 41.3 µM; in the experiment with UACC-257 melanoma, 2.88 µM; with K-562 leukemia it was more than 100 µM; in the experiment on 786-0 renal, 28 µM; with COLO 205 colon, 3.07 µM; in the experiment with HL-60(TB) leukemia, 23 µM. The TGI worked out at 0.357 µM in the experiment with MALME-3M melanoma; 9.33 µM with HCC-2998 colon; 10.1 µM in the experiment with MDA-MB-231 breast; 4.09 µM with A549 NSCLC; 35.7 µM in the experiment with OVCAR-5 ovarian.
As to `C=C(CN(C)C)C(=O)c1cc(C)ccc1C`, the TGI is 15.7 µM with T-47D breast; 26 µM in the experiment with UACC-257 melanoma; 8.16 µM with K-562 leukemia; 11.4 µM in the experiment with 786-0 renal; 3.53 µM in the experiment on COLO 205 colon; 0.446 µM in the experiment on HL-60(TB) leukemia. For the same molecule, the TGI in the experiment with MALME-3M melanoma was 7.77 µM; in the experiment with HCC-2998 colon it was 29.9 µM; in the experiment with MDA-MB-231 breast, 36.2 µM; in the experiment with A549 NSCLC it was 41.6 µM; in the experiment with OVCAR-5 ovarian, 31.2 µM.
As for `COc1cc(C=Nc2ccc(S(N)(=O)=O)cc2)cc(OC)c1`, the TGI was more than 50 µM in the experiment with T-47D breast; more than 50 µM with UACC-257 melanoma; more than 50 µM with K-562 leukemia; more than 50 µM in the experiment on 786-0 renal; more than 50 µM in the experiment with COLO 205 colon; 36.8 µM in the experiment on HL-60(TB) leukemia. Besides, the TGI in the experiment with MALME-3M melanoma, in the experiment with HCC-2998 colon, in the experiment with MDA-MB-231 breast, with A549 NSCLC and with OVCAR-5 ovarian was more than 50 µM in each case.
For `O=c1c2ccccc2c2c1c1c3ccccc3c(=O)c1c1c3ccccc3c(=O)c21`, the TGI in the experiment with T-47D breast, in the experiment on UACC-257 melanoma, in the experiment on K-562 leukemia, with 786-0 renal, in the experiment on COLO 205 colon and in the experiment on HL-60(TB) leukemia was more than 100 µM in each case. Moreover, the TGI in the experiment on MALME-3M melanoma, with HCC-2998 colon, in the experiment with MDA-MB-231 breast, with A549 NSCLC and in the experiment with OVCAR-5 ovarian was more than 100 µM throughout.
`c1ccc(/N=N\Nc2ccc(-c3nc4ccccc4o3)cc2)nc1`: the TGI with T-47D breast is 87.1 µM; with UACC-257 melanoma, 83 µM; in the experiment with K-562 leukemia, more than 100 µM; in the experiment on 786-0 renal it was more than 100 µM; in the experiment with COLO 205 colon it was 49.2 µM; with HL-60(TB) leukemia, more than 100 µM. In addition, the TGI was more than 100 µM with MALME-3M melanoma; 55.4 µM with HCC-2998 colon; more than 100 µM in the experiment with MDA-MB-231 breast; more than 100 µM with A549 NSCLC; more than 100 µM in the experiment with OVCAR-5 ovarian.
